pIC50: −log10 of the molar value.
Legend:
[1] = target: T1, ENL YEATS domain (Homo sapiens, UniProt Q03111); test: TR-FRET ENL Screening Assay; settings: 6×HIS ENL YEATS domain binding to biotinylated H3K9cr peptide (aa1-20)
T1 construct: ENL Protein (6×HIS ENL YEATS Domain, EpiCypher, 15-0069); purchased EpiCypher 15-0069
T1 sequence (Q03111 1-138 limits assumed): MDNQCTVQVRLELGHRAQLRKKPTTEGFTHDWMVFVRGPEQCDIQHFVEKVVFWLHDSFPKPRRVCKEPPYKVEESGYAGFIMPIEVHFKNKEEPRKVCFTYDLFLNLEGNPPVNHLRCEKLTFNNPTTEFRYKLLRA
Experimental: Compounds of the invention were tested in a TR-FRET ENL Screening Assay. TR-FRET (time-resolved fluorescence energy transfer) can be used to quantify ENL YEATS domain binding to a crotonylated histone peptide (H3K9cr, aa1-20). Streptavidin-Europium (Eu) chelate binds the biotinylated peptide, while Anti-6×HIS ULight™ binds 6×HIS-ENL. When Eu chelate is excited at 320 nm, fluorescence resonance energy transfer (FRET) occurs if Eu and ULight are made proximal by ENL binding to the acyl-peptide. ULight emission (FRET) is measured at 665 nm and normalized to the Eu emission at 615 nm to reduce variability between wells.
Compounds of the invention were dissolved in DMSO at a concentration of 3 mM with subsequent dilutions in assay buffer (50 mM HEPES PH 7.0, 150 mM NaCl, 0.05% BSA, 0.2% Pluronic F-127) such that the assay contained 1% DMSO. In a white 384 shallow well Microplate (Proxiplate-384 Plus, PerkinElmer, 6008280), 150 nL of compound or vehicle (1% DMSO in assay buffer) for the high control (HC) wells and 5 μL of 30 nM ENL Protein (6×HIS ENL YEATS Domain, EpiCypher, 15-0069) were combined and incubated 15 minutes at RT. Low control (LC) wells received 5 μL of assay buffer instead of ENL protein. Then 5 μL of 15 nM H3K9cr peptide (H3 aa1-20, biotinylated; EpiCypher, 12-0099) in assay buffer was added and incubated 30 minutes at RT. Finally, a 5 L mix of 45 nM Anti-6HIS ULight (PerkinElmer, TRF0105) and 1.5 nM Streptavidin-Europium Chelate (PerkinElmer, AD0060) were added and incubated for a further 30 minutes at RT. The TR-FRET signal (665 nm signal/615 nm signal×10,000) was measured using a PerkinElmer 2104 EnVision (Xenon Flash Lamp excitation, 320 nm±37.5 nm excitation filter, 407 nm cut off dichroic mirror, 615 nm±4.25 (Europium) nm and 665 nm+3.75 nM (ULight) emission filters). Compound concentration response curves were performed in duplicate over the concentration range of 0.15 nM-30 μM. The response at each compound concentration minus the LC value was converted to percent inhibition of the vehicle control group response (HC-LC).

[2] = test system: MV4:11 (MLL-AF4 MLL) cells; test: Cell viability assay (CellTiter-Glo), 12 days; type: cell-based; settings: Homo sapiens, 288 h, MV4:11 cells, cells split on days 4 and 8, CellTiter-Glo readout, read-out: MV4:11, 12 Day IC50
Experimental: Cell-based assays were used to assess the ability of test compounds to reduce cell viability in both MV4:11 (MLL-AF4 MLL) and K562 cells, which were cultured in Iscove's Modified Dulbecco's medium (Gibco, 12440061) containing 10% FBS. The assays were conducted over 12 days and the cells being split on days 4 and 8. Compound concentration response curves were performed in duplicate over the concentration range of 0.15 nM-30 μM. On day 0, the compounds or vehicle were plated in a 300 nL directly into 96 well cell culture plates (Corning, 3599) with 5000 cells/well in a volume of 100 μL. Blank wells received cell culture medium. Plates were incubated for 4 days at 37° C. with 5% CO2. On days 4 and day 8 the cells were split and incubated for a further 4 days whilst an aliquot of cells were taken for the CTG readout. For the cell splitting, 270 nL of compounds or DMSO was added to a new 96 well cell culture plate to which 90 μL of medium plus 10 μL of cells from the original assay plate (after mixing) or 100 μL of medium (Blank wells) was added. This was repeated on day 8.
Cell viability was assessed using the CellTiter-Glo® homogeneous luminescent assay kit (Promega, G9243), according to the manufacturer's instructions. This quantifies ATP, which indicates the presence of metabolically active cells. On days 4, 8 and 12, 20 μl of the remaining cell suspension was aspirated into 384-well plate (Corning 3570) to which an equal volume CellTiter-Glo reagent was. Plates were incubated for 10 minute incubation at RT prior to recording the luminescence signal using EnVision plate reader (PE, 2104). The resulting data were analyzed as follows:
where vehicle are cells treated with 0.3% DMSO, Blank is culture medium. IC50 determinations were calculated by fitting the curve using XLfit (v5.3.1.3): Y=Bottom+(Top−Bottom)/(1+10^((Log IC50−X)*HillSlope)).

[3] = target: T2, FLT3 (Homo sapiens, UniProt P36888); test: FLT3 Inhibition Assay; type: biochemical; settings: FL Peptide 2 substrate, 30 min preincubation, 90 min at room temperature, Caliper EZ reader
T2 construct: purchased Carna 08-154
T2 sequence (P36888 27-993): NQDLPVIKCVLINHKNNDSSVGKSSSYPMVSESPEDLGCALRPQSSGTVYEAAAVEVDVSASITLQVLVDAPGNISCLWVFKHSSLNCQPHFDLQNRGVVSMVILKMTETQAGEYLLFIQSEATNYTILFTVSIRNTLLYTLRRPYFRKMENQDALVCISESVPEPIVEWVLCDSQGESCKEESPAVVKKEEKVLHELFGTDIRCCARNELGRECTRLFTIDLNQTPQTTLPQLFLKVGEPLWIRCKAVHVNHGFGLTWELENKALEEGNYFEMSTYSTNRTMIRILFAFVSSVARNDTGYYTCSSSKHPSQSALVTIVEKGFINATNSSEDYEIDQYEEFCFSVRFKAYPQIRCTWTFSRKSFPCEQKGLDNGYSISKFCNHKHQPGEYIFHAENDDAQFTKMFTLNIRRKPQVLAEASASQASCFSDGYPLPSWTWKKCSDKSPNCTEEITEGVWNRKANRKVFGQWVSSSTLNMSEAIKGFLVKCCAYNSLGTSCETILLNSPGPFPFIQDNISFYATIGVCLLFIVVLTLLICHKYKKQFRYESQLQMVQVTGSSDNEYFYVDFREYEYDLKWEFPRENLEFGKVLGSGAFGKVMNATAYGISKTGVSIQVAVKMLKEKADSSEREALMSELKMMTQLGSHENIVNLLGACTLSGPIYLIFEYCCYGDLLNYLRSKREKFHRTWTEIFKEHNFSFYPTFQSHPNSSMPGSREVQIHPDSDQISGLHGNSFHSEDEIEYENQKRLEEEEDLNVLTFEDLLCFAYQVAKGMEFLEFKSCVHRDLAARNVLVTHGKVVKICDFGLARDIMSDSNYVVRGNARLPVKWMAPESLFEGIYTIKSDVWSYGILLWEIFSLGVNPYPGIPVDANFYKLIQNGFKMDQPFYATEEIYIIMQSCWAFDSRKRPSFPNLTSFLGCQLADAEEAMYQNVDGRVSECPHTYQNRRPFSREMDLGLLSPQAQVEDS
Experimental: Starting with a 10 mM stock solution, each test compound was serially diluted into 10 concentrations by 3-fold dilution using TECAN EVO200. 60 nL of each stock was transferred to a 384 plate using Echo550.
Solution 1 was prepared as the table above and used to dilute the FLT3, ATP and FL2 stock to 0.9379 nM (1.33×), 400 μM (4×) and 6 μM (4×) respectively. The FLT3 solution (15 μL) at 25° C. was added to each well, shaken for 1 min and preincubated with test compound and controls for 30 min. To each well, 5 μL of ATP and FL-Peptide2 solutions, as prepared above, were added and the plate was shaken for 10 seconds, then spun briefly at 1000 rpm, then incubated for 90 minutes at room temperature. The plate was read on Caliper EZ reader, and the IC50 values were calculated using XLfit (equation below).
[formula] • LumSample: Test compound signal • LumLC: Low control signal • LumHC: High control signal

| Compound | pIC50 [1] | pIC50 [2] | pIC50 [3] |
| --- | --- | --- | --- |
| CN1CCC[C@@H]1c1cc2cnc(NC(=O)c3ccc(-c4cn[nH]c4)cc3)cc2[nH]1 [Example 5, (R)-N-(2-(1-methylpyrrolidin-2-yl)-1H-pyrrolo[3,2-c]pyridin-6-yl)-4-(1H-pyrazol-4-yl)benzamide] | 7.34 | 7.10 | 6.56 |
| Cc1cc2cnc(NC(=O)c3ccc(-c4cn[nH]c4)cn3)cc2[nH]1 [Example 1, N-(2-methyl-1H-pyrrolo[3,2-c]pyridin-6-yl)-5-(1H-pyrazol-4-yl)picolinamide] | – | 7.40 | 8.15 |
| CN1CCC[C@H]1c1cc2cnc(NC(=O)c3ccc(-c4cn[nH]c4)cn3)cc2[nH]1 [Example 3, (S)-N-(2-(1-methylpyrrolidin-2-yl)-1H-pyrrolo[3,2-c]pyridin-6-yl)-5-(1H-pyrazol-4-yl)picolinamide] | – | 7.08 | 7.89 |
| CN1CCCC[C@@H]1c1cc2cnc(NC(=O)c3ccc(-c4cn[nH]c4)cc3)cc2[nH]1 [Example 6, (R)-N-(2-(1-methylpiperidin-2-yl)-1H-pyrrolo[3,2-c]pyridin-6-yl)-4-(1H-pyrazol-4-yl)benzamide] | 7.19 | 6.86 | – |
| CN1CCC[C@@H]1c1cc2cnc(NC(=O)c3ccc(-c4cn[nH]c4)cc3F)cc2[nH]1 [Example 4, (R)-2-fluoro-N-(2-(1-methylpyrrolidin-2-yl)-1H-pyrrolo[3,2-c]pyridin-6-yl)-4-(1H-pyrazol-4-yl)benzamide] | 7.17 | 6.92 | – |
| CN1CCC[C@@H]1c1cc2cnc(NC(=O)c3ccc(-c4cn[nH]c4)cn3)cc2[nH]1 [Example 2, (R)-N-(2-(1-methylpyrrolidin-2-yl)-1H-pyrrolo[3,2-c]pyridin-6-yl)-5-(1H-pyrazol-4-yl)picolinamide] | – | 7.72 | 8.15 |

Next, values leading:

| pIC50 [1] | pIC50 [2] | pIC50 [3] | Compound |
| --- | --- | --- | --- |
| 6.75 | 6.45 | – | COCc1n[nH]cc1-c1ccc(C(=O)Nc2cc3[nH]c([C@H]4CCCN4C)cc3cn2)cc1 [Example 8, (R)-4-(5-(methoxymethyl)-1H-pyrazol-4-yl)-N-(2-(1-methylpyrrolidin-2-yl)-1H-pyrrolo[3,2-c]pyridin-6-yl)benzamide] |
| – | 7.44 | – | CN1CCCC[C@@H]1c1cc2cnc(NC(=O)c3ccc(-c4cn[nH]c4)cn3)cc2[nH]1 [Example 7, (R)-N-(2-(1-methylpiperidin-2-yl)-1H-pyrrolo[3,2-c]pyridin-6-yl)-5-(1H-pyrazol-4-yl)picolinamide] |
| 7.14 | 6.75 | – | CN1CCC[C@@H]1c1cc2cnc(NC(=O)c3ccc(-c4c[nH]nc4F)cc3)cc2[nH]1 [Example 9, (R)-4-(5-fluoro-1H-pyrazol-4-yl)-N-(2-(1-methylpyrrolidin-2-yl)-1H-pyrrolo[3,2-c]pyridin-6-yl)benzamide] |
